Broadly, the melting point is the temperature, or range, at which the solid turns liquid.

With `NC(=O)[C@@H](C[C@H](O)[C@H](Cc1ccccc1)NC(=O)c1cnc2ccccc2n1)C1(O)CCCC1` [Example 277, Quinoxaline-2-carboxylic acid [1(S)-benzyl-4(S)-carbamoyl-2(S)-hydroxy-4-(1-hydroxy-cyclopentyl)-butyl]-amide], the melting point lay in the range of 192 to 195 °C.
`CC1(C)CC([C@H](C[C@H](O)[C@H](Cc2ccccc2)NC(=O)c2cnc3ccccc3n2)C(N)=O)CC(C)(C)C1` [Example 179, Quinoxaline-2-carboxylic acid [1(S)-benzyl-4(S)-carbamoyl-2(S)-hydroxy-4-(3,3,5,5-tetramethyl-cyclohexyl)-butyl]-amide] came in with a melting point of 188 to 190 °C.
To `NC(=O)[C@@H](C[C@H](O)[C@H](Cc1ccccc1)NC(=O)c1cnc2ccccc2n1)C1(O)C2CCCC1CCC2` (stereo partly drawn) [Example 296, Quinoxaline-2-carboxylic acid [1(S)-benzyl-4(S)-carbamoyl-2(S)-hydroxy-4-(9-hydroxy-bicyclo[3.3.1]non-9-yl)-butyl]-amide] belongs 268 to 269 °C; to `NC(=O)[C@@H](C[C@H](O)[C@H](Cc1ccccc1)NC(=O)c1cnc2ccccc2n1)C1(O)CCCCC1` [Example 243, Quinoxaline-2-carboxylic acid [1(S)-benzyl-4(S)-carbamoyl-2(S)-hydroxy-4-(1-hydroxy-cyclohexyl)-butyl]-amide], 187 to 189 °C; to `CNC(=O)[C@H](CC1CCCCC1)C[C@H](O)[C@H](CC1CCCCC1)NC(=O)c1cc2ccccc2cn1` [Example 59, Isoquinoline-3-carboxylic acid (5-cyclohexyl-1(S)-cyclohexylmethyl-2(S)-hydroxy-4(R)-methylcarbamoyl-pentyl)-amide], 205 to 207 °C.
To `O=C(N[C@@H](Cc1ccccc1)[C@@H](O)C[C@H](C(=O)NO)C1(O)C2CC3CC(C2)CC1C3)c1cnc2ccccc2n1` (stereo partly drawn) [Example 297, Quinoxaline-2-carboxylic acid [1(S)-benzyl-2(S)-hydroxy-4(S)-(2-hydroxy-adamantan-2-yl)-4-hydroxycarbamoyl-butyl]-amide] belongs 133 to 134 °C; to `NC(=O)[C@@H](C[C@H](O)[C@H](Cc1ccccc1)NC(=O)c1ccc2ccccc2n1)C1CCCCC1` [Example 262, Quinoline-2-carboxylic acid (1(S)-benzyl-4(S)-carbamoyl-4-cyclohexyl-2(S)-hydroxy-butyl)-amide], 208 to 210 °C.
Turning to `COc1ccccc1CNC(=O)[C@H](CCC(C)(C)F)C[C@H](O)[C@H](Cc1ccccc1)NC(=O)c1cnc2ccccc2n1` [Example 227, Quinoxaline-2-carboxylic acid [1(S)-benzyl-7-fluoro-2(S)-hydroxy-4(R)-(2-methoxy-benzylcarbamoyl)-7-methyl-octyl]-amide], the melting point worked out at 135 °C.
For the compound `NC(=O)[C@@H](C[C@H](O)[C@H](Cc1ccccc1)NC(=O)c1cnc2ccccc2n1)C1CCCCCC1` [Example 181, Quinoxaline-2-carboxylic acid (1(S)-benzyl-4(S)-carbamoyl-4-cycloheptyl-2(S)-hydroxy-butyl)-amide], the melting point was in the range of 216 to 217 °C.
Compound `NC(=O)C1(C[C@H](O)[C@H](Cc2ccccc2)NC(=O)c2cnc3ccccc3n2)Cc2ccccc2C1` [Example 164, Quinoxaline-2-carboxylic acid [1(S)-benzyl-3-(2-carbamoyl-indan-2-yl)-2(S)-hydroxy-propyl]-amide] displayed a melting point of 90 to 100 °C.
`NC(=O)[C@@H](C[C@H](O)[C@H](Cc1ccccc1)NC(=O)c1cnc2ccccc2n1)C1(O)CCC(F)(F)CC1` [Example 306, Quinoxaline-2-carboxylic acid [1(S)-benzyl-4(S)-carbamoyl-4-(4,4-difluoro-1-hydroxy-cyclohexyl)-2(S)-hydroxy-butyl]-amide] returned a melting point of 207.5 to 208.5 °C.
Compound `CNC(=O)[C@H](CC(C)C)C[C@H](O)[C@H](Cc1ccc(OCc2ccccc2)cc1)NC(=O)c1cnc2ccccc2n1` [Example 39, Quinoxaline-2-carboxylic acid [1(S)-(4-benzyloxy-benzyl)-2(S)-hydroxy-6-methyl-4(R)-methylcarbamoyl-heptyl]-amide] had a melting point of 196 to 197 °C.
Regarding `CC(C)CC[C@H](C[C@H](O)[C@H](Cc1cccc(F)c1)NC(=O)c1cnc2ccccc2n1)C(N)=O` [Example 135, Quinoxaline-2-carboxylic acid [4(R)-carbamoyl-1(S)-(3-fluoro-benzyl)-2(S)-hydroxy-7-methyl-octyl]-amide], the melting point was in the range of 191 to 191.5 °C.
As for `CNC(=O)[C@H](CC1CCCCC1)C[C@H](O)[C@H](CC1CCCCC1)NC(=O)c1cnc2ccccc2c1` [Example 21, Quinoline-3-carboxylic acid (5-cyclohexyl-1(S)-cyclohexylmethyl-2(S)-hydroxy-4(R)-methylcarbamoyl-pentyl)-amide], the melting point fell in the range of 170.5 to 172.5 °C.
`NC(=O)[C@@H](C[C@H](O)[C@H](Cc1ccccc1)NC(=O)c1cnc2ccccc2n1)C1(O)CCSCC1` [Example 269, Quinoxaline-2-carboxylic acid [1(S)-benzyl-4(S)-carbamoyl-2(S)-hydroxy-4-(4-hydroxy-tetrahydro-thiopyran-4-yl)-butyl]-amide] gave a melting point of 123 to 125 °C.
Compound `O=C(N[C@@H](Cc1ccccc1)[C@@H](O)C[C@H](C(=O)NO)C1(O)C2CCCC1CCC2)c1cnc2ccccc2n1` (stereo partly drawn) [Example 298, Quinoxaline-2-carboxylic acid [1(S)-benzyl-2(S)-hydroxy-4(S)-(9-hydroxy-bicyclo[3.3.1]non-9-yl)-4-hydroxycarbamoyl-butyl]-amide] yielded a melting point of 130 to 132 °C.
Turning to `NC(=O)[C@H](C[C@H](O)[C@H](Cc1cccs1)NC(=O)c1cnc2ccccc2n1)C1(O)CCCCC1` [Example 268, Quinoxaline-2-carboxylic acid [4(R)-carbamoyl-2(S)-hydroxy-4-(1-hydroxy-cyclohexyl)-1(S)-thiophen-2-ylmethyl-butyl]-amide], the melting point is 206 to 207 °C.
Regarding `CCCC1CCC(O)([C@H](C[C@H](O)[C@H](Cc2ccccc2)NC(=O)c2cnc3ccccc3n2)C(=O)NO)CC1` (stereo partly drawn) [Example 301, Quinoxaline-2-carboxylic acid [1(S)-benzyl-2(S)-hydroxy-4(S)-hydroxycarbamoyl-4-(1-hydroxy-4-propyl-cyclohexyl)-butyl]-amide], the melting point lay within 115 to 117 °C.
As for `NC(=O)[C@H](Cc1ccc(F)cc1)C[C@H](O)[C@H](Cc1ccccc1)NC(=O)c1cnc2ccccc2n1` [Example 194, Quinoxaline-2-carboxylic acid [1(S)-benzyl-4(R)-carbamoyl-5-(4-fluoro-phenyl)-2(S)-hydroxy-pentyl]-amide], the melting point was in the range of 164 to 166 °C.
For the compound `NC(=O)[C@@H](C[C@H](O)[C@H](Cc1ccccc1)NC(=O)c1cnc2ccccc2n1)C1CCCCC1` [Example 168, Quinoxaline-2-carboxylic acid (1(S)-benzyl-4-carbamoyl-4(S)-cyclohexyl-2(S)-hydroxy-butyl)-amide], the melting point was 222 to 223 °C.
With `CC(C)(F)CC[C@H](C[C@H](O)[C@H](Cc1ccccc1)NC(=O)c1cnc2ccccc2n1)C(=O)NCc1ccco1` [Example 234, Quinoxaline-2-carboxylic acid {1(S)-benzyl-7-fluoro-4(R)-[(furan-2-ylmethyl)-carbamoyl]-2(S)-hydroxy-7-methyl-octyl}-amide], the melting point lay in the range of 155.5 to 156.5 °C.
On to `Cc1ccccc1C[C@H](C[C@H](O)[C@H](Cc1ccccc1)NC(=O)c1cnc2ccccc2n1)C(N)=O` [Example 275, Quinoxaline-2-carboxylic acid (1(S)-benzyl-4(R)-carbamoyl-2(S)-hydroxy-5-o-tolyl-pentyl)-amide], for which the melting point is 168 to 171 °C.
`NC(=O)[C@@H](C[C@H](O)[C@H](Cc1ccccc1)NC(=O)c1cnc2ccccc2n1)C1(O)CCCCCC1` [Example 290, Quinoxaline-2-carboxylic acid [1(S)-benzyl-4(S)-carbamoyl-2(S)-hydroxy-4-(1-hydroxy-cycloheptyl)-butyl]-amide] gave a melting point of 189 to 191 °C.
The compound `CC(C)(F)CC[C@H](C[C@H](O)[C@H](Cc1ccc(Cl)c(Cl)c1)NC(=O)c1cnc2ccccc2n1)C(N)=O` [Example 155, Quinoxaline-2-carboxylic acid [4(R)-carbamoyl-1(S)-(3,4-dichloro-benzyl)-7-fluoro-2(S)-hydroxy-7-methyl-octyl]-amide] yielded a melting point of 206 to 207 °C.
For `NC(=O)[C@@H](C[C@H](O)[C@H](Cc1ccccc1)NC(=O)c1cnc2ccccc2n1)C1CCCCC1` [Example 169, Quinoxaline-2-carboxylic acid (1(S)-benzyl-4-carbamoyl-4(S)-cyclohexyl-2(S)-hydroxy-butyl)-amide], the melting point was 178 to 180 °C.
As for `CC(C)(F)CC[C@H](C[C@H](O)[C@H](Cc1cccc(F)c1)NC(=O)c1cnc2ccccc2n1)C(N)=O` [Example 245, Quinoxaline-2-carboxylic acid [4(R)-carbamoyl-7-fluoro-1(S)-(3-fluoro-benzyl)-2(S)-hydroxy-7-methyl-octyl]-amide], the melting point is 225 to 227 °C.
`CC(C)(F)CC[C@H](C[C@H](O)[C@H](Cc1ccccc1)NC(=O)c1cnc2ccccc2n1)C(=O)NCCc1cccnc1` [Example 220, Quinoxaline-2-carboxylic acid [1(S)-benzyl-7-fluoro-2(S)-hydroxy-7-methyl-4(R)-(2-pyridin-3-yl-ethylcarbamoyl)-octyl]-amide] came in with a melting point of 154 to 155 °C.
In the case of `CC(C)(O)CC[C@H](C[C@H](O)[C@H](Cc1ccc(F)c(F)c1)NC(=O)c1cnc2ccccc2n1)C(N)=O` [Example 323, Quinoxaline-2-carboxylic acid [4(R)-carbamoyl-1(S)-(3,4-difluoro-benzyl)-2(S),7-dihydroxy-7-methyl-octyl]-amide], the melting point lay within 110 to 120 °C.
In the case of `CC(C)(F)CC[C@H](C[C@H](O)[C@H](Cc1ccccc1)NC(=O)c1cnc2ccccc2n1)C(=O)NCCc1c[nH]c2ccccc12` [Example 230, Quinoxaline-2-carboxylic acid {1(S)-benzyl-7-fluoro-2(S)-hydroxy-4(R)-[2-(1H-indol-3-yl)-ethylcarbamoyl]-7-methyl-octyl}-amide], the melting point fell in the range of 107 to 108 °C.
